Laboratory results taken from ChEMBL document CHEMBL3046819, “Synthesis and antimicrobial activity of new pyridine derivatives-I” (2011).

Experiments:
Assay type in all cases: functional
Conditions in all cases: read-out: IZ
Escherichia coli [1] = assay: Antibacterial activity against Escherichia coli ATCC 25922 at 100 ug/ml by cup-plate method
Candida albicans [2] = assay: Antifungal activity against Candida albicans ATCC 10231 at 100 ug/ml by cup-plate method
Pseudomonas aeruginosa [3] = assay: Antibacterial activity against Pseudomonas aeruginosa ATCC 9027 at 200 ug/ml by cup-plate method
Staphylococcus aureus [4] = assay: Antibacterial activity against Staphylococcus aureus ATCC 9144 at 200 ug/ml by cup-plate method
Pseudomonas aeruginosa [5] = assay: Antibacterial activity against Pseudomonas aeruginosa ATCC 9027 at 100 ug/ml by cup-plate method
Bacillus subtilis [6] = assay: Antibacterial activity against Bacillus subtilis ATCC 6633 at 100 ug/ml by cup-plate method
Escherichia coli [7] = assay: Antibacterial activity against Escherichia coli ATCC 25922 at 200 ug/ml by cup-plate method
Bacillus subtilis [8] = assay: Antibacterial activity against Bacillus subtilis ATCC 6633 at 200 ug/ml by cup-plate method
Candida albicans [9] = assay: Antifungal activity against Candida albicans ATCC 10231 at 200 ug/ml by cup-plate method
Staphylococcus aureus [10] = assay: Antibacterial activity against Staphylococcus aureus ATCC 9144 at 100 ug/ml by cup-plate method

SMILES | zone of inhibition at 100 µg/mL (Escherichia coli [1]) | zone of inhibition at 100 µg/mL (Candida albicans [2]) | zone of inhibition at 200 µg/mL (Pseudomonas aeruginosa [3]) | zone of inhibition at 200 µg/mL (Staphylococcus aureus [4]) | zone of inhibition at 100 µg/mL (Pseudomonas aeruginosa [5]) | zone of inhibition at 100 µg/mL (Bacillus subtilis [6]) | zone of inhibition at 200 µg/mL (Escherichia coli [7]) | zone of inhibition at 200 µg/mL (Bacillus subtilis [8]) | zone of inhibition at 200 µg/mL (Candida albicans [9]) | zone of inhibition at 100 µg/mL (Staphylococcus aureus [10])
O=C(c1cccnc1Nc1nc2ccccc2s1)N1CCN(CCO)CC1 | 7 mm | 3 mm | 9 mm | 7 mm | 8 mm | 6 mm | 8 mm | 10 mm | 5 mm | 6 mm
O=C(c1cccnc1Nc1nc2c([N+](=O)[O-])cccc2s1)N1CCN(CCO)CC1 | 5 mm | 4 mm | 11 mm | 12 mm | 8 mm | 8 mm | 9 mm | 9 mm | 7 mm | 8 mm
O=C(c1cccnc1Nc1nc2cc([N+](=O)[O-])ccc2s1)N1CCN(CCO)CC1 | 4 mm | 2 mm | 7 mm | 11 mm | 7 mm | 8 mm | 8 mm | 8 mm | 4 mm | 6 mm
O=C(c1cccnc1Nc1nc2ccc([N+](=O)[O-])cc2s1)N1CCN(CCO)CC1 | 0 mm | 0 mm | 8 mm | 9 mm | 6 mm | 0 mm | 5 mm | 6 mm | 2 mm | 8 mm
O=C(c1cccnc1Nc1nc2c(Cl)cccc2s1)N1CCN(CCO)CC1 | 6 mm | 3 mm | 9 mm | 7 mm | 7 mm | 7 mm | 9 mm | 8 mm | 6 mm | 7 mm
O=C(c1cccnc1Nc1nc2cc(Cl)ccc2s1)N1CCN(CCO)CC1 | 5 mm | 3 mm | 3 mm | 0 mm | 0 mm | 5 mm | 5 mm | 5 mm | 4 mm | 0 mm
